Measurements published in ChEMBL document CHEMBL1201862, “PubChem BioAssay data set” (2004).
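Where inhibition never reached the appropriate level, the endpoint shown equals the highest concentration tested. Otherwise, values were interpolated linearly from a five-concentration, 48-hour dose response in 96-well plates. GI50 marks 50% less growth.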 Active and inactive are the calls of the source. Cut-off read from the data, not from the text of the source: active = GI50 up to about 1.1 µM and inactive = higher.

Assays:
Assay in all cases: DTP human tumour cell line panel, 48 h
SNB-75 = tested on: SNB-75
ACHN = tested on: ACHN
SR = tested on: SR
SNB-19 = tested on: SNB-19
EKVX = tested on: EKVX
SK-MEL-5 = tested on: SK-MEL-5
MDA-MB-231 = tested on: MDA-MB-231
NCI-H226 = tested on: NCI-H226
OVCAR-4 = tested on: OVCAR-4
NCI-H460 = tested on: NCI-H460
COLO 205 = tested on: COLO 205
HCT-116 = tested on: HCT-116
T47D = tested on: T47D
CAKI-1 = tested on: CAKI-1
HCT-15 = tested on: HCT-15
PC-3 = tested on: PC-3
U-251 = tested on: U-251
BT-549 = tested on: BT-549
RPMI-8226 = tested on: RPMI-8226

| SMILES | GI50 (SNB-75) | GI50 (ACHN) | GI50 (SR) | GI50 (SNB-19) | GI50 (EKVX) | GI50 (SK-MEL-5) | GI50 (MDA-MB-231) | GI50 (NCI-H226) | GI50 (OVCAR-4) | GI50 (NCI-H460) | GI50 (COLO 205) | GI50 (HCT-116) | GI50 (T47D) | GI50 (CAKI-1) | GI50 (HCT-15) [µM] | GI50 (PC-3) | GI50 (U-251) | GI50 (BT-549) | GI50 (RPMI-8226) |
| --- | --- | --- | --- | --- | --- | --- | --- | --- | --- | --- | --- | --- | --- | --- | --- | --- | --- | --- | --- |
| CC(C)[C@H](NC(=O)OCc1ccccc1)C(=O)N[C@H](/C=C/C(=O)OC(C)(C)C)CO | 0.12 µM (active) | > 100 µM (inactive) | > 100 µM (inactive) | > 100 µM (inactive) | > 100 µM (inactive) | > 100 µM (inactive) | > 100 µM (inactive) | > 100 µM (inactive) | > 100 µM (inactive) | > 100 µM (inactive) | 80.4 µM (inactive) | 71.9 µM (inactive) | 36.7 µM (inactive) | > 100 µM (inactive) | > 100 | 68.1 µM (inactive) |  |  |  |
| c1ccc2c(c1)sc1c3cnccc3ccc21 | > 100 µM (inactive) | 90.4 µM (inactive) | 11.6 µM (inactive) | > 100 µM (inactive) | 6.71 µM (inactive) | > 100 µM (inactive) | > 100 µM (inactive) | 24.2 µM (inactive) | > 100 µM (inactive) | 24.9 µM (inactive) | 90.8 µM (inactive) | > 100 µM (inactive) | > 100 µM (inactive) | 43.3 µM (inactive) | > 100 |  | > 100 µM (inactive) | > 100 µM (inactive) | 0.0697 µM (active) |
| CC1(CC2=C(C(=O)NCCO[Si](C)(C)C(C)(C)C)C3(OCCO3)C2=O)OCCO1 | 36.5 µM (inactive) | > 100 µM (inactive) |  | > 100 µM (inactive) | > 100 µM (inactive) | > 100 µM (inactive) | > 100 µM (inactive) | 71.1 µM (inactive) | > 100 µM (inactive) | > 100 µM (inactive) | > 100 µM (inactive) | 68.5 µM (inactive) | 59.8 µM (inactive) | > 100 µM (inactive) | > 100 | > 100 µM (inactive) | > 100 µM (inactive) | 53.2 µM (inactive) |  |
| CC(=O)OCC1OC(n2c(C)c(C(C)=O)c(-c3ccc(Cl)cc3)c(C#N)c2=S)C(OC(C)=O)C(OC(C)=O)C1OC(C)=O (stereo not given) | > 100 µM (inactive) | > 100 µM (inactive) | > 100 µM (inactive) | > 100 µM (inactive) |  | > 100 µM (inactive) | > 100 µM (inactive) | > 100 µM (inactive) | > 100 µM (inactive) | > 100 µM (inactive) | > 100 µM (inactive) | > 100 µM (inactive) | > 100 µM (inactive) |  | > 100 | > 100 µM (inactive) | > 100 µM (inactive) |  |  |
| O=C1C=CC2CCC1C2 (stereo not given) | 27.5 µM (inactive) | 40.3 µM (inactive) |  | 28.4 µM (inactive) | > 100 µM (inactive) | 28.6 µM (inactive) | 28.6 µM (inactive) | 39.4 µM (inactive) |  | 30.6 µM (inactive) | 33.7 µM (inactive) | 23.4 µM (inactive) | 19.9 µM (inactive) | 27.5 µM (inactive) | 18.2 | 45 µM (inactive) | 28.8 µM (inactive) | 21.4 µM (inactive) | 34 µM (inactive) |
| O=C(O)c1ccc(P(=O)(O)c2ccc(C(=O)O)cc2Br)c(Br)c1 | > 100 µM (inactive) |  |  | > 100 µM (inactive) | > 100 µM (inactive) | > 100 µM (inactive) | > 100 µM (inactive) | > 100 µM (inactive) |  |  | > 100 µM (inactive) | > 100 µM (inactive) |  | > 100 µM (inactive) | > 100 | > 100 µM (inactive) |  | > 100 µM (inactive) | > 100 µM (inactive) |
| COc1ccc(OC)c(N2C(=O)CSC2c2cc(OC)c(OC)c(OC)c2)c1 (stereo not given) |  | > 100 µM (inactive) | 46 µM (inactive) | > 100 µM (inactive) | > 100 µM (inactive) | 99.8 µM (inactive) | > 100 µM (inactive) | > 100 µM (inactive) | > 100 µM (inactive) | > 100 µM (inactive) | > 100 µM (inactive) | > 100 µM (inactive) |  | > 100 µM (inactive) | 98.4 | > 100 µM (inactive) | > 100 µM (inactive) | 48.4 µM (inactive) | > 100 µM (inactive) |
| CC(=O)c1sc2c(c1OC(=O)c1cccs1)c(=O)n(-c1ccccc1)c(=S)n2-c1ccccc1 | 29.4 µM (inactive) | 3.54 µM (inactive) |  | 12.5 µM (inactive) | 25.1 µM (inactive) | 12.1 µM (inactive) | 14.4 µM (inactive) | 3.08 µM (inactive) | 22 µM (inactive) | 12.3 µM (inactive) | 18 µM (inactive) | 16.9 µM (inactive) | 15.9 µM (inactive) | 30.8 µM (inactive) | 17.5 | 3.63 µM (inactive) | 5.86 µM (inactive) |  | 4.32 µM (inactive) |
